Reference: EP4595976A1, “COMPOSITION FOR TREATING CANCER CONTAINING HISTONE DEACETYLASE INHIBITOR, AND ANTICANCER ADJUVANT FOR CANCER IMMUNOTHERAPY” (Samsung Life Public Welfare Foundation, priority 2022, dated 2024)

What was measured:
CT26 [1] = assay: Animal experiment using HDAC6 inhibitor with or without anti-PD-L1 antibody, CT26 tumors; format: in vivo; conditions: during treatment with HDAC6 inhibitor; FIG. 9D
Procedure: The animal experiment using an HDAC6 inhibitor was conducted using a total of three groups, a control group (control), an HDAC6i (Next A) group, and an HDAC6i (Next A)+anti-PD-L1 group. Nexturastat A (SellekChem) was used as HDAC6i (HDAC6 inhibitor), and #BE0101(Bioxcell) was used as an anti-PD-L1 antibody. CT26 (1x10^6) cells and BALB/C mice were used. Three mice for the control group, three mice for the HDAC6i group, and four mice for the HDAC6i+anti-PD-L1 group were used.
• HDAC6i group: HDAC6i 20 mpk(mg/kg) intraperitoneally injected daily • HDAC6i+anti-PD-L1 group: HDAC6i 20 mpk intra peritoneally injected every day and anti-PD-L1 antibody 10 mpk intra peritoneally injected three times per week.
In addition, paraffin blocks of tumor tissues were prepared for histological staining, and subjected to H&E and TUNEL assay in order to investigate cell death. […]
Additionally, the expression of related genes was examined by real-time PCR after the isolation of RNA form tumors. In the animal experiment according to an example of the present invention, the mRNA changes of PD-L1, TNF-a and IFN-γ (pro-inflammatory cytokines), IL-6 (anti-inflammatory cytokine), and IRF-1 (target gene for JAK2/STAT1 signaling) were measured, and the results are shown in FIG. 11.

DLD-1 = assay: IC50 concentration at which 50% of cells are dead, inhibitor treatment for 48 hours; format: cell-based; conditions: Homo sapiens, Table 3, DLD-1 (MSI), read-out: IC50(mean±SD)
Procedure: (§1) The IC50 concentration, which is the concentration at which 50% of cells are dead, was obtained by treating each cell line with an inhibitor at different concentrations for 48 hours and then determining the concentrations at which 50% of the cells were dead. Especially, the results obtained by treating various MSS cell lines (SW620, LS513, HT29, and CT26) with HDAC6i are shown in Table 4 below.

SW620 = assay: as above; format: cell-based; conditions: Homo sapiens, SW-620, Table 3, SW620 (MSS), read-out: IC50(mean±SD)
Procedure: as §1

CT26 [2] = assay: as above; format: cell-based; conditions: Mus musculus; Table 4; CT26, MSS (48hr); read-out: IC50(mean±SD)
Procedure: as §1

HT29 = assay: as above; format: cell-based; conditions: Homo sapiens, HT-29; Table 4; HT29, MSS (48hr); read-out: IC50(mean±SD)
Procedure: as §1

LS513 = assay: as above; format: cell-based; conditions: Homo sapiens, LS-513, Table 3, LS513 (MSS), read-out: IC50(mean±SD)
Procedure: as §1

PD-L1 = PD-L1 expression (real-time PCR, western blot) in colorectal cell lines 48 hours after HDAC inhibitor treatment; format: cell-based; conditions: for PD-L1 expression at the RNA and protein levels: depending on the concentration; for PD-L1 expression: IC50 and 1/2 IC50, 48 hours, FIG. 2
Procedure: The HDAC3 inhibitor experiment was conducted by harvesting cells 48 hours after the treatment at each inhibitor concentration and obtaining RNA and proteins. RGFP966 (S7229) purchased from SellekChem was used as an HDAC3 inhibitor. Specifically, SW620, LS513, DLD-1, CT26, and MC38 were individually cultured, and the experiments were conducted using the IC50 and 1/2 IC50 concentration on the basis of the previously determined IC50 concentration. RNA and protein samples were collected 48 hours after RGFP966 treatment. The RNA samples were isolated using the TRIzol, isopropanol, and chloroform, and the protein samples were collected by lysis with a lysis buffer (Roche, 4719956001). RNA was synthesized into cDNA using a cDNA synthesis kit (Bioneer, K-2044-B), and real-time PCR was performed using a method according to SYBR (Applied Biosystems, 4367659). Proteins were quantified using the Bradford assay (Bio-Rad, 50000006), and subjected to loading, transfer, blocking (3% skim milk; BD, 232100), primary antibody (24 h, 4°C), and secondary antibody sequentially, thereby developing PD-L1.
The HDAC6 inhibitor experiment was conducted by the same method as in the HDAC3 inhibitor experiment of Experimental Example 3, and Nexturastat A HDAC6 selective inhibitor purchased from SellekChem was used as an HDAC6 inhibitor.
The HDAC8 inhibitor experiment was conducted by the same method as in the HDAC3 inhibitor experiment of Experimental Example 3, and PCI-34051 HDAC8 selective inhibitor purchased from SellekChem was used as an HDAC8 inhibitor.
The HDAC6 and HDAC8 inhibitor experiment was conducted by harvesting cells 48 hours after the treatment and then obtaining RNA and proteins.

PD-L1 and B7H3 = PD-L1 and B7H3 expression after HDAC6 inhibitor treatment in MSI and MSS colorectal cancer cell lines; format: cell-based; conditions: IC50 and half-IC50 concentrations; MSS cell line compared with MSI cell line; FIG. 15
Procedure: The IC50 values of the HDAC6 inhibitor (Nexturastat A) in three MSI colorectal cancer cell lines (DLD-1, HCT116, and MC38) and three MSS colorectal cancer cell lines (SW620, HT29, and CT26) were determined. The cells were then treated with the inhibitor at the IC50 and half-IC50 concentrations (concentration corresponding to 1/2 of the IC50 value), and the expression levels of the immune checkpoint proteins PD-L1 and B7H3 were measured.

| SMILES | body weight of the mice (CT26 [1]) | IC50 (DLD-1) | IC50 (SW620) | IC50 (CT26 [2]) | IC50 (HT29) | IC50 (LS513) | PD-L1 expression at the RNA and protein levels (PD-L1; MSS cell lines (SW620, LS513, HT29, and CT26), FIG. 4) | B7H3 expression (PD-L1 and B7H3) | PD-L1 expression (PD-L1 and B7H3) | PD-L1 expression at the RNA and protein levels (PD-L1; MSS cell lines (SW620, LS513, and CT26), FIG. 6) | PD-L1 expression (PD-L1; MSS cell lines (SW620, LS513, and CT26), compared with HDAC6 and HDAC8) | PD-L1 expression (PD-L1; mouse cells) |
| --- | --- | --- | --- | --- | --- | --- | --- | --- | --- | --- | --- | --- |
| CCCCN(Cc1ccc(C(=O)NO)cc1)C(=O)Nc1ccccc1 [Nexturastat A] | not reduced | 10.8 µM | 6.8 µM | 27.1 µM | 11.3 µM | 26.9 µM | increase | distinct increase tendencies | distinct increase tendencies |  |  |  |
| COc1ccc(Cn2ccc3ccc(C(=O)NO)cc32)cc1 [PCI-34051] |  | 6.36 µM | 31.8 µM |  |  | 19.6 µM |  |  |  | increase |  |  |
| Nc1cc(F)ccc1NC(=O)/C=C/c1cnn(C/C=C/c2ccccc2)c1 [RGFP966] |  | 119 µM | 23.8 µM |  |  | 43.1 µM |  |  |  |  | small increases | decrease tendency |
